15 compounds from patent US7223777B2, “Compounds for the management of aging-related and diabetic vascular complications, process for their preparation, therapeutic and cosmetic uses thereof” (Torrent Pharmaceuticals Ltd., priority 2001, dated 2007) can be followed below.

The target in one test is T1, AGE-BSA (Bos taurus, UniProt P02769).
T1 construct: Bovine serum albumin (fraction V) (BSA); from tissue; host or cells: bovine serum (fraction V); own knowledge: fraction V is the albumin fraction of plasma/serum
T1 sequence (P02769 25-607): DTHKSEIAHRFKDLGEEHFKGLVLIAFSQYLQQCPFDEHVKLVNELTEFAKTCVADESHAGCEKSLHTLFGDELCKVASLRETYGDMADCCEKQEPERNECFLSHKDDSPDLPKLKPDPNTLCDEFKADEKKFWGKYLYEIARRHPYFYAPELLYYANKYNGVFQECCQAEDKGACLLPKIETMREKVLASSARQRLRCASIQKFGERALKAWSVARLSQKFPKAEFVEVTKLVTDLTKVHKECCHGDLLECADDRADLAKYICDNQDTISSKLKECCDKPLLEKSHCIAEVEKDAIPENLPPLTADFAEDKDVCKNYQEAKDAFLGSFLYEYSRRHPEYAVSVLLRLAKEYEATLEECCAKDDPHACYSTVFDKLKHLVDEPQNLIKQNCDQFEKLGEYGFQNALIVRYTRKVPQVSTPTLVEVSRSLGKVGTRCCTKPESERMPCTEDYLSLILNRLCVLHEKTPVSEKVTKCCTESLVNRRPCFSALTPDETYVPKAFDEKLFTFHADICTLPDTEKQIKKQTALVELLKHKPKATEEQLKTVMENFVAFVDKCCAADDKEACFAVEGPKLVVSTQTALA
As to the kind of experiment: In-vitro screening for AGE-breaking activity (AGE-BSA incubated with compound; ELISA / gel permeation chromatography). The test is classed as biochemical, bovine. As to conditions: 37° C., 24 hours. The method, then:
Fluorescence was used as the criteria to monitor the increased AGE formation.
160 mg/ml of protein, bovine serum albumin, BSA and 1.6M glucose sugar were dissolved in phosphate buffered saline, PBS. Sodium azide was added at 0.02% concentration as a preservative. The solution was filtered asceptically through a […] filter and kept for aging at 37° C. for 16 weeks. After 16 weeks the solution was dialyzed against PBS, aliquoted and stored at −20° C.
To determine the AGE breaking activity, 10 μg/ml of the 16 weeks AGE-BSA was incubated with different concentrations of the test compounds at 37° C. for 24 hours and AGE breaking activity of the test compounds by ELISA was determined.
• 1. Different concentrations of 16 weeks AGE-BSA were coated on a microtiter plate as standard. Each concentration is coated in triplicates. • 2. The test samples were coated on microtiter plate at a concentration of 5 ng. to 20 ng per well in triplicates. • 3. The plate was incubated at 37° C. for one hour. • 4. After incubation the plate was washed with PBST (PBS with 0.05% Tween 20). • 5. Blocking with 5% skimmed milk in PBS at 37° C. for one hour was done. • 6. The plate was washed with PBST. • 7. Primary antibody against AGE-BSA was added and the plate is incubated at 37° C. for one hour. • 8. The plate was washed with PBST. • 9. Secondary antibody anti rabbit HRPO (Horse-Radish Per Oxidase) conjugate was added and the plate is incubated at 37° C. for one hour. • 10. The plate was washed with PBST. • 11. Colour development with OPD (orthophenylenediamine dihydrochloride) and hydrogen peroxide was done. • 12. OD (optical density) at (450 nm reading –620 nm reading) was measured after incubation at 37° C. for 15 minutes with Microplate ELISA Reader.
The breaker activity of the compounds were determined by the following formula:
[formula] OD450-620Control=Absorbance of 20 ng AGE-BSA after incubation at 37° C. for 24 hours without test compound. OD450-620Test=Absorbance of 20 ng AGE-BSA after incubation at 37° C. for 24 hours with required concentration of test compound.
Gel Permeation Chromatography based method was used to determine AGE breaking activities of the compounds.
Separation by Gel Permeation Chromatography (GPC) depends on differences in the size, more precisely the hydrodynamic volume, of the proteins in a sample. […] The pores of a column particle are differentially accessible to smaller particles, depending on their size. This volume of the column is called (V1). The total accessible volume (Vt) is the sum of the volume outside the particles (V0) and the volume accessible inside the particles (V1): Vt=V0+Vi Therefore, in a typical Gel Permeation Chromatography (GPC) run, high molecular weight molecules elute at a lower retention time whereas lower molecular weight molecules are retained for longer time. For the purpose of quantification, the area under the curve for the respective molecule is recorded. The same principle has been applied in the in vitro screening of the molecules of instant invention. Highly cross-linked Advanced Glycosylated Endproducts (AGE) were prepared in vitro by incubating Bovine Serum Albumin (BSA) with glucose for a period of 16 weeks. […] The reduction in the area of AGE-BSA incubated in the presence of AGE breaker as compared to that of control AGE BSA (incubated in absence of AGE breaker) gives an estimate of the AGE breaker activity of the drug. In order to check the non-specific activity of the molecule, a similar experiment was repeated with BSA as well. Methodology:
A known concentration of 16-week AGE-BSA was incubated with and without a predetermined concentration of the drug at 37° C. for 24 hours in clean transparent glass test tubes. The solution without drug served as the control and the solution containing the drug was treated as the test sample.
Gel permeation chromatography was performed on equal volumes of control AGE-BSA preparation and solution of AGE-BSA treated with drug. […]

Test [1] is described as follows: Free radical scavenging activity on ABTS radical cation. The test is classed as biochemical. How it is done: This method measures the relative ability of free radical scavenging substances to scavenge the ABTS.^+ i.e. 2,2-Azino-bis-(3-ethyl benzo thiazoline-6-sulfonate) radical cation as compared to a standard amount of standard or free radical scavengers antioxidants. Incubation of ABTS with Peroxidase (metmyoglobin) and hydrogen peroxide results in the production of radical cation ABTS.^+. This species is blue-green in colour and can be detected at 730 nm. Antioxidants or free radical scavengers in the added sample that causes suppression of the color to a degree that is proportional to their concentration.
Preparation of Buffer Solutions: • a. Phosphate Citrate Buffer (pH 5.0): 48.5 ml of 0.1M citric acid with sufficient 0.2M disodium hydrogen phosphate to produce 100 ml. • b. Phosphate Buffer Saline (PBS): Dissolve 40.0 g of NaCl, 1.0 g of KCl, 1.0 g of KH2PO4 and 3.05 g of Na2HPO4 in 1 liter milli-Q water. Dilute 200 ml of above solution to 1 liter with milli-Q water (pH 7.4–7.6).
Preparation of ABTS Stock Solution (2 mM): • 1 tablet (10 mg) was dissolved in phosphate citrate buffer (pH 5.0) to give a 2 mM solution.
Preparation of Horse Radish Peroxidase Working Solution: • 0.1 mg was dissolved in 10 ml of phosphate buffer saline, 1 ml of this solution was diluted to 100 ml with PBS.
Preparation of Hydrogen Peroxide (1.08 mM) Solution: • 12 μl of Hydrogen Peroxide (30% w/v) was diluted to 100 ml with PBS.
Preparation of Drug Solutions: • 0.1 mM of stock solution of the drug was prepared which was serially diluted in PBS to get 0.05 mM, 0.025 mM and 0.0125 mM solutions.
Preparation of ABTS Radical Stock Solution: • To 2 ml of ABTS stock solution, 1 ml of horseradish Peroxidase working solution was added. • As soon as 2 ml of Hydrogen peroxide solution was added to the above solution, blue-green colour of the ABTS radicals appeared. This solution was incubated at 30° C. for 30 min in order to ensure the completion reaction. Make up the volume to 10 ml with PBS.
Preparation of Control Solution: • 900 μl of ABTS radical stock solution were added to an eppendorf tube. To it were added 100 μl of PBS solution.
Preparation of Test Solution: • 900 μl of ABTS radical stock solutions were added to different eppendorf tubes. To it were added 100 μl of various concentrations of drug solution.
Measurement of Absorbance (O.D): • The absorbance of control and test samples was recorded immediately at 730 nm taking PBS as blank.
Calculation: • The percent antioxidant activity was calculated according to the formula: % Antioxidant activity=100−[O.D of test sample/O.D of control×100]

`O=C(C[n+]1cccc(-c2cc(Cc3ccccc3)n[nH]2)c1)NC12CC3CC(CC(C3)C1)C2.[Cl-]` [Compound 25, 1-{2-(1-Adamantylamino-2-oxoethyl)}-3-[(3-phenylmethyl)pyrazol-5-yl]pyridinium chloride]: the “% Breakage” value on AGE-BSA (5 mM compound) amounted to 98.59%.
Take `O=C(C[n+]1cccc(-c2cc(COc3ccccc3)n[nH]2)c1)N1CCC(Cc2ccccc2)CC1.[Br-]` [Compound 16, 1-(2-(4-Benzyl-1-piperidinyl)-2-oxoethyl) 3-[(3-phenoxymethyl)pyrazol-5-yl]-pyridinium bromide]: the “% Breakage” value at AGE-BSA (10 mM compound) was 95.51%.
Regarding `Cc1cc(C)n(Cc2cc(-c3ccc[n+](CC(=O)NC4CC4)c3)[nH]n2)n1.[Br-]` [Compound 7, 1-[2-(Cyclopropylamino)-2-oxoethyl]3-[3-{(3,5-dimethylpyrazol-1-yl)methyl}-pyrazol-5-yl]-pyridinium bromide], the “% Breakage” value on AGE-BSA (1.0 mM compound) came out at 51.72%.
As to `Cc1cc(C)n(Cc2cc(-c3ccc[n+](CC(=O)c4cc([N+](=O)[O-])cs4)c3)n(C3CCCCC3)n2)n1.[Br-]` [Compound 27, 1-(2-(4-nitro-2-thienyl)-2-oxoethyl)-3-[(1-cyclohexyl-3-(3,5-dimethylpyrazol-1-yl)-methyl)pyrazol-5-yl]pyridinium bromide], the “Relative Free Radical Scavenging Activity (%) on ABTS” value in test [1] (12.5 μM) amounted to 16.16%; in test [1] (25.0 μM) it was 27.12%; in test [1] (50.0 μM) it was 39.05%; in test [1] (100.0 μM), 51.04%. The “% Breakage” value at AGE-BSA (10 mM compound) is listed as 86.98%.
In the case of `Cl.c1ccc(OCc2cc(-c3cccnc3)[nH]n2)cc1` [Compound 40, 3-[(3-Phenoxymethyl)pyrazol-5-yl]pyridine hydrochloride], the “% Breakage” value at AGE-BSA (10 mM compound) is listed as 66.06%.
As for `Cc1ccc(C(=O)C[n+]2cccc(-c3cc(Cc4ccccc4)n[nH]3)c2)s1.[Cl-]` [Compound 12, 1-(2-(5-Methyl-2-Thienyl)-2-oxoethyl)-3-[(3-phenylmethyl)pyrazol-5-yl]pyridinium chloride], the “Relative Free Radical Scavenging Activity (%) on ABTS” value in test [1] (12.5 μM) is 22.34%; in test [1] (25.0 μM), 40.97%; in test [1] (50.0 μM), 71.47%; in test [1] (100.0 μM), 84.62%. Further, the “% Breakage” value at AGE-BSA (10 mM compound) came out at 89.23%.
Consider “1-(2-Cyclopropylamino-2-oxoethyl)-3-[(1-cyclohexyl-3-phenylmethyl)pyrazol-5-yl]pyridinium chloride [Compound 23]”, for which the “% Breakage” value at AGE-BSA (10 mM compound) is recorded as 53.29%.
As to `Cc1ccc(C(=O)C[n+]2cccc(-c3cc(CCC4CCCCC4)n[nH]3)c2)s1.[Cl-]` [Compound 20], the “Relative Free Radical Scavenging Activity (%) on ABTS” value amounted to 6.15% in test [1] (12.5 μM), 9.06% in test [1] (25.0 μM), 34.31% in test [1] (50.0 μM) and 57.75% in test [1] (100.0 μM).
In the case of “1-(2-Thien-2′-yl-2-oxoethyl)-3-[(1-cyclohexyl-3-phenoxymethyl)pyrazol-5-yl]pyridinium chloride [Compound 38]”, the “Relative Free Radical Scavenging Activity (%) on ABTS” value in test [1] (12.5 μM) came to 27.70%; in test [1] (25.0 μM) it was 44.78%; in test [1] (50.0 μM), 61.98%; in test [1] (100.0 μM) it was 66.92%.
Take `Cc1cc(C)n(Cc2cc(-c3ccc[n+](CC(=O)c4cc([N+](=O)[O-])cs4)c3)[nH]n2)n1.[Br-]` [Compound 8, 1-{2-(4-Nitro-2-thienyl)-2-oxoethyl}-3-[3{(3,5-dimethylpyrazol-1-yl)methyl}-pyrazol-5-yl]-pyridinium bromide]: the “Relative Free Radical Scavenging Activity (%) on ABTS” value turned out to be 22.22% in test [1] (12.5 μM), 38.18% in test [1] (25.0 μM), 67.14% in test [1] (50.0 μM) and 99.71% in test [1] (100.0 μM). For the same compound, the “% Breakage” value on AGE-BSA (5 mM compound) is recorded as 85.31%.
On to `O=C(C[n+]1cccc(-c2cc(COc3ccccc3)n[nH]2)c1)NC1CC1.[Cl-]` [Compound 31, 1-(2-Cyclopropylamino-2-oxoethyl)-3-[(3-phenoxymethyl)pyrazol-5-yl]pyridinium chloride], for which the “% Breakage” value at AGE-BSA (10 mM compound) amounted to 45.72%.
`O=C(C[n+]1cccc(-c2cc(Cc3ccccc3)nn2-c2ccccc2)c1)NC1CC1.[Cl-]` [Compound 15, 1-(2-Cyclopropylamino-2-oxoethyl) 3-[(1-phenyl-3-phenylmethyl)pyrazol-5-yl]-pyridinium chloride]: the “% Breakage” value on AGE-BSA (10 mM compound) turned out to be 80.03%.
On the same count and under the same terms, then “1-(2-Cyclopropylamino-2-oxoethyl)-3-[(3-(2-cyclohexylethyl)pyrazol-5-yl]pyridinium chloride [Compound 21]”, with 93.43%.
Take `O=C(C[n+]1cccc(-c2cc(CCC3CCCCC3)nn2-c2ccccc2)c1)c1cccs1.[Br-]` [Compound 37, 1-(2-Thien-2′-yl-2-oxoethyl)-3-[1-phenyl-3-(2-cyclohexylethyl)pyrazol-5-yl]pyridinium bromide]: the “Relative Free Radical Scavenging Activity (%) on ABTS” value in test [1] (12.5 μM) is recorded as 21.79%; in test [1] (25.0 μM), 37.92%; in test [1] (50.0 μM), 41.95%; in test [1] (100.0 μM), 39.46%. Besides, the “% Breakage” value on AGE-BSA (10 mM compound) turned out to be 85.45%.
As for `O=C(C[n+]1cccc(-c2cc(Cc3ccccc3)n[nH]2)c1)c1ccccc1.[Br-]` [Compound 14, 1-(2-Phenyl-2-oxoethyl)-3-[(3-phenylmethyl)pyrazol-5-yl]-pyridinium bromide], at AGE-BSA (10 mM compound), the “% Breakage” value was determined as 58.14%.
